Data from patent US8987193B2, “Nisin derivatives and the use thereof” (University College Cork—National University of Ireland, Cork, priority 2008, dated 2015).
Entries after “also recorded” stand apart in the source; their conditions may differ. Ends that are not written are not given here.

Columns and labels:
L. monocytogenes CBC1 = experiment: Deferred antagonism assay; type: cell-based, Listeria monocytogenes; set-up: key: + = Enhanced bioactivity relative to control; − = Bioactivity equal to or less than control; NA = no activity evident; settings: producing strain; L. mono CBC1
How it was run: (§1)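 Producer strains replicated on GM17 or GM17 x-gal agar, grown overnight, then overlaid with 0.75% agar seeded with indicator strain. Zone size = diameter of clearing minus 5 mm growth diameter. Purified nisins tested by well diffusion at 37° C overnight; activity in AU/ml from reciprocal of highest active dilution × 20.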

L. monocytogenes CBC3 = experiment: Deferred antagonism assay; type: cell-based, Listeria monocytogenes; set-up: key: + = Enhanced bioactivity relative to control; − = Bioactivity equal to or less than control; NA = no activity evident; settings: producing strain; L. mono CBC3
How it was run: as §1

L. monocytogenes CBC2 = experiment: Deferred antagonism assay; type: cell-based, Listeria monocytogenes; set-up: key: + = Enhanced bioactivity relative to control; − = Bioactivity equal to or less than control; NA = no activity evident; settings: producing strain; L. mono CBC2
How it was run: as §1

L. plantarum CBC6 = experiment: Deferred antagonism assay; type: cell-based, Lactobacillus plantarum; set-up: key: + = Enhanced bioactivity relative to control; − = Bioactivity equal to or less than control; NA = no activity evident; settings: producing strain
How it was run: as §1

S. aureus CBC4 = experiment: Deferred antagonism assay; type: cell-based; set-up: key: + = Enhanced bioactivity relative to control; − = Bioactivity equal to or less than control; NA = no activity evident; settings: producing strain
How it was run: as §1

L. lactis CBC8 = experiment: Deferred antagonism assay; type: cell-based; set-up: key: + = Enhanced bioactivity relative to control; − = Bioactivity equal to or less than control; NA = no activity evident; settings: producing strain
How it was run: as §1

L. lactis CBC7 = experiment: Deferred antagonism assay; type: cell-based; set-up: key: + = Enhanced bioactivity relative to control; − = Bioactivity equal to or less than control; NA = no activity evident; settings: producing strain
How it was run: as §1

[1] = system: Staph. aureus ST528 (MRSA); experiment: Deferred antagonism assay; type: cell-based; settings: producing strain, diameter of zone minus diameter of bacterial growth (5 mm), average of duplicates
Description: (§2) Deferred antagonism assays were performed by replicating strains on GM17 or GM17 x-gal agar plates and allowing them to grow overnight before overlaying with either GM17/BHI/TS/MH agar (0.75% w/v agar) seeded with the appropriate indicator strain. Zone size was calculated as the diameter of the zone of clearing minus the diameter of bacterial growth (5 mm) For higher throughput screening of N20PXX, XM21VX, XXK22T and XXX banks deferred antagonism assays were performed by replicating strains using a 96 pin replicator (Boekel) or spotting 5 μl of a fresh overnight culture on GM17 agar plates and allowing them to grow overnight. […] Additional sets of indicators were employed to further assess/reassess the bioactivity of a number of strains. […] For well-diffusion assays molten agar was cooled to 48° C. and seeded with the appropriate indicator strain. The inoculated medium was rapidly transferred into sterile Petri plates in 50 ml volumes, allowed to solidify and dried. Wells (4.6 mm in diameter) were then made in the seeded plates. Purified nisin and mutant nisins were resuspended in 0.005% acetic acid, serially diluted, 50 μl volumes were dispensed into the aforementioned wells and the plates incubated at 37° C. overnight. Bioactivity was expressed as arbitrary units/ml (AU/ml) and calculated as the reciprocal of the highest dilution that gave a definite zone multiplied by the conversion factor (i.e. 20 when 50 μl was used) (Ryan et al., 1996).
(§3) As a consequence of the enhanced activities of K22T and K22S, a more in-depth investigation of this region was carried out. Saturation mutagenesis was undertaken to create a bank of nisin A hinge derivatives containing the vast majority of possible amino acid substitutions for each position. Although pPTPL was used successfully for random mutagenesis, its relatively large size of approx 10.5 kb was considered unsuitable for the complete plasmid PCR amplification approach utilized for saturation mutagenesis. A smaller (approx 6 kb) E. coli-L. lactis shuttle vector pCI372 was considered to be potentially more useful. Its suitability with respect to the in trans expression of nisA was confirmed by the ability of pDFO5 to restore the nisin positive phenotype. Saturation mutagenesis was performed on each codon using pDF05 and oligonucleotides (Table 5) that replace the specific codon with a NNK triplet, potentially encoding all 20 standard amino acids. Following complete plasmid amplification and introduction into the intermediate Top10 host, sequence analysis of a pooled bank of pDF05 derivatives confirmed randomization. Introduction of these variants into L. lactis NZ9800 allowed the expression of mutant nisin A peptides for further analysis. […] 46 residue conversions were isolated. All strains, regardless of bioactivity, were assessed with a view to comprehensively assessing the consequences of each individual hinge alteration.
(§4) Values are an average of duplicate experiments and represent zone size (diameter of zone minus diameter of bacterial growth (i.e. 5 mm) relative to that of the NZ9800 pCI372nisA control. X=Mutants not identified.

Staph. aureus DPC5245 = experiment: Deferred antagonism assay; type: cell-based; settings: producing strain; diameter of zone minus 5 mm; average of duplicates; St. aureus DPC5245
Description: as §2, §3, §4

[2] = system: Strep. agalactiae ATCC13813; experiment: Deferred antagonism assay; type: cell-based; settings: producing strain, diameter of zone minus 5 mm, average of duplicates
Description: as §2, §3, §4

C. sporogenes CBC5 = experiment: Deferred antagonism assay; type: cell-based, Clostridium sporogenes; set-up: key: + = Enhanced bioactivity relative to control; − = Bioactivity equal to or less than control; NA = no activity evident; settings: producing strain
indicator strains = experiment: Deferred antagonism assays, various indicator strains (summary); type: cell-based; settings: for Strain(s) against which the derivative (producing strain) displays enhanced bioactivity: relative to nisin A-producing control, value = strains listed; for bioactivity of the producing strain, in words: in general / against the strains tested
How it was run: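 Producer strains were replicated on GM17 or GM17 x-gal agar, grown overnight, then overlaid with GM17, BHI, TS or MH soft agar (0.75% w/v) seeded with the indicator strain. Zone size was taken as the clearing diameter minus the diameter of bacterial growth (5 mm).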

Substance: NisinA K22G (ITSISLCTPGCKTGALMGCNMGTATCHCSIHVSK; cysteine pairing not given here; also: lantibiotic nisin-A; UniProt P13068 24-57, looked up, variant K22G) [nisin A derivative, hinge substitution K22G]
- Bioactivity relative to control (L. monocytogenes CBC1): −
- Bioactivity relative to control (L. monocytogenes CBC3): −
- Bioactivity relative to control (L. monocytogenes CBC2): −
- Bioactivity relative to control (L. plantarum CBC6): −
- Bioactivity relative to control (S. aureus CBC4): −
- Bioactivity relative to control (L. lactis CBC8): +
- Bioactivity relative to control (L. lactis CBC7): +
- zone size relative to that of the NZ9800 pCI372nisA control [1]: 118.5%
- zone size relative to that of the NZ9800 pCI372nisA control (Staph. aureus DPC5245): 112%
- zone size relative to that of the NZ9800 pCI372nisA control [2]: 126%
- Bioactivity relative to control (C. sporogenes CBC5): −
- relative bioactivity against the indicators of Table 6 (indicator strains; Staph. aureus ST528, DPC5245 and Strep. agalactiae ATCC 13813 taken together): approximately 120%
- Strain(s) against which the derivative (producing strain) displays enhanced bioactivity (indicator strains): L. lactis CBC7 and CBC8; also recorded: DPC5425, Strep. agalactiae ATCC 13813

Substance: NisinA N20A
- Bioactivity relative to control (L. monocytogenes CBC1): −
- Bioactivity relative to control (L. monocytogenes CBC3): −
- Bioactivity relative to control (L. monocytogenes CBC2): −
- Bioactivity relative to control (L. plantarum CBC6): −
- Bioactivity relative to control (S. aureus CBC4): −
- Bioactivity relative to control (L. lactis CBC8): −
- Bioactivity relative to control (L. lactis CBC7): −
- zone size relative to that of the NZ9800 pCI372nisA control [1]: 60.5%
- zone size relative to that of the NZ9800 pCI372nisA control (Staph. aureus DPC5245): 69%
- zone size relative to that of the NZ9800 pCI372nisA control [2]: 52%
- Bioactivity relative to control (C. sporogenes CBC5): +
- Strain(s) against which the derivative (producing strain) displays enhanced bioactivity (indicator strains): C. sporogenes CBC5

Substance: NisinA N20F (ITSISLCTPGCKTGALMGCFMKTATCHCSIHVSK; not fully specified; also: lantibiotic nisin: dehydrated residues and thioether rings not placed; UniProt P13068 24-57, looked up, variant N20F) [nisin A derivative, hinge substitution N20F]
- Bioactivity relative to control (L. monocytogenes CBC1): −
- Bioactivity relative to control (L. monocytogenes CBC3): −
- Bioactivity relative to control (L. monocytogenes CBC2): −
- Bioactivity relative to control (L. plantarum CBC6): −
- Bioactivity relative to control (S. aureus CBC4): −
- Bioactivity relative to control (L. lactis CBC8): −
- Bioactivity relative to control (L. lactis CBC7): +
- zone size relative to that of the NZ9800 pCI372nisA control [1]: 11.25%
- zone size relative to that of the NZ9800 pCI372nisA control (Staph. aureus DPC5245): 20.5%
- zone size relative to that of the NZ9800 pCI372nisA control [2]: 15%
- Bioactivity relative to control (C. sporogenes CBC5): −
- Strain(s) against which the derivative (producing strain) displays enhanced bioactivity (indicator strains): L. lactis CBC7

Substance: NisinA M21A (ITSISLCTPGCKTGALMGCNAKTATCHCSIHVSK; not fully specified; also: lantibiotic nisin: dehydrated residues and thioether rings not placed; UniProt P13068 24-57, looked up, variant M21A) [nisin A derivative, hinge substitution M21A]
- Bioactivity relative to control (L. monocytogenes CBC1): +
- Bioactivity relative to control (L. monocytogenes CBC3): −
- Bioactivity relative to control (L. monocytogenes CBC2): −
- Bioactivity relative to control (L. plantarum CBC6): −
- Bioactivity relative to control (S. aureus CBC4): −
- Bioactivity relative to control (L. lactis CBC8): +
- Bioactivity relative to control (L. lactis CBC7): +
- zone size relative to that of the NZ9800 pCI372nisA control [1]: 132.5%
- zone size relative to that of the NZ9800 pCI372nisA control (Staph. aureus DPC5245): 135%
- zone size relative to that of the NZ9800 pCI372nisA control [2]: 105%
- Bioactivity relative to control (C. sporogenes CBC5): −
- Strain(s) against which the derivative (producing strain) displays enhanced bioactivity (indicator strains): L. monocytogenes CBC1 and L. lactis CBCT and CBC8; also recorded: L. monocytogenes CBC1 , and L. lactis CBC7 and CBC8; also recorded: L. monocytogenes CBC1, L. lactis CBC7, CBC8, S. aureus

Substance: N20V: nisin A derivative, hinge substitution N20V (ITSISLCTPGCKTGALMGCVMKTATCHCSIHVSK; cysteine pairing not given here; also: lantibiotic nisin-A; UniProt P13068 24-57, looked up, variant N20V)
- Bioactivity relative to control (L. monocytogenes CBC1): −
- Bioactivity relative to control (L. monocytogenes CBC3): −
- Bioactivity relative to control (L. monocytogenes CBC2): −
- Bioactivity relative to control (L. plantarum CBC6): −
- Bioactivity relative to control (S. aureus CBC4): −
- Bioactivity relative to control (L. lactis CBC8): −
- Bioactivity relative to control (L. lactis CBC7): −
- zone size relative to that of the NZ9800 pCI372nisA control [1]: 68%
- zone size relative to that of the NZ9800 pCI372nisA control (Staph. aureus DPC5245): 77%
- zone size relative to that of the NZ9800 pCI372nisA control [2]: 63%
- Bioactivity relative to control (C. sporogenes CBC5): −
- bioactivity of the producing strain, in words (indicator strains): reduced bioactivity levels

Substance: NisinA M21N
- Bioactivity relative to control (L. monocytogenes CBC1): −
- Bioactivity relative to control (L. monocytogenes CBC3): −
- Bioactivity relative to control (L. monocytogenes CBC2): −
- Bioactivity relative to control (L. plantarum CBC6): −
- Bioactivity relative to control (S. aureus CBC4): −
- Bioactivity relative to control (L. lactis CBC8): +
- Bioactivity relative to control (L. lactis CBC7): −
- zone size relative to that of the NZ9800 pCI372nisA control [1]: 95%
- zone size relative to that of the NZ9800 pCI372nisA control (Staph. aureus DPC5245): 90%
- zone size relative to that of the NZ9800 pCI372nisA control [2]: 98%
- Bioactivity relative to control (C. sporogenes CBC5): −
- bioactivity of the producing strain, in words (indicator strains): approximately wild type bioactivity
- Strain(s) against which the derivative (producing strain) displays enhanced bioactivity (indicator strains): L. lactis CBC8

Substance: NisinA N20R (ITSISLCTPGCKTGALMGCRMKTATCHCSIHVSK; not fully specified; also: lantibiotic nisin: dehydrated residues and thioether rings not placed; UniProt P13068 24-57, looked up, variant N20R) [nisin A derivative, hinge substitution N20R]
- Bioactivity relative to control (L. monocytogenes CBC1): −
- Bioactivity relative to control (L. monocytogenes CBC3): −
- Bioactivity relative to control (L. monocytogenes CBC2): −
- Bioactivity relative to control (L. plantarum CBC6): −
- Bioactivity relative to control (S. aureus CBC4): −
- Bioactivity relative to control (L. lactis CBC8): −
- Bioactivity relative to control (L. lactis CBC7): −
- zone size relative to that of the NZ9800 pCI372nisA control [1]: 0%
- zone size relative to that of the NZ9800 pCI372nisA control (Staph. aureus DPC5245): 53.5%
- zone size relative to that of the NZ9800 pCI372nisA control [2]: 19%
- Bioactivity relative to control (C. sporogenes CBC5): +
- bioactivity of the producing strain, in words (indicator strains): greatly reduced bioactivities
- Strain(s) against which the derivative (producing strain) displays enhanced bioactivity (indicator strains): C. sporogenes CBC5
